From patent US20060100567A1, “Microsurgical tissue treatment system” (Rocky Mountain Biosystems, Inc, priority 2004, published 2006)

Experiment: Delivery of a topical anesthetic through micro-ablated stratum corneum
Type: in vivo
Conditions: solution of 4% lidocaine applied for five minutes to approx. 1 cm^2 area ablated by piezoelectric actuator with 60 micron aluminum oxide particles, 10-15 pulses, 20 kHz
Protocol: A piezoelectric actuator was fitted with 60 micron aluminum oxide particles fixed to its surface so as to provide an approximate 1 cm^2 treatment area. Ten to fifteen pulses of less than one second duration were applied with force of less than 1 pound to the area and frequency of 20 kHz. […] A solution of 4% lidocaine was applied to the area and incubated for five minutes. The excess lidocaine was wiped off, and a series of probes was made in and around the area of treatment using a 20 gauge needle or by pinching.

CCN(CC)CC(=O)Nc1c(C)cccc1C [lidocaine]
anesthesia (sensation on probing with a 20 gauge needle or pinching): significant anesthesia was obtained
